According to US7982053B2, “Peptide deformylase inhibitors” (GlaxoSmithKline LLC, priority 2005, dated 2011):

Tested on: Mycobacterium tuberculosis H37Rv
Experiment: Mycobacterium tuberculosis Susceptibility Assay (Resazurin)
Type: cell-based
Settings: 7H9+ADC medium, 37° C., read-out: MIC (minimal inhibitory concentration)

Structure (SMILES)	MIC [mg/L]
N[C@H]1CC[C@H](OC(=O)NC(=O)[C@@H]2CCCN2C(=O)[C@H](CC2CCCC2)CN(O)C=O)CC1 [Example 19, N-{[(trans-4-aminocyclohexyl)oxy]carbonyl}-1-((2R)-3-cyclopentyl-2-{[formyl(hydroxy)amino]methyl}propanoyl)-L-prolinamide]	≤ 32
CC(=O)NC(=O)[C@@H]1CCCN1C(=O)[C@H](CC1CCCC1)CN(O)C=O [Example 2, N-acetyl-1-((2R)-3-cyclopentyl-2-{[formyl(hydroxy)amino]methyl}propanoyl)-L-prolinamide]	≤ 32
N#Cc1cccc(C(=O)NC(=O)[C@@H]2CCCN2C(=O)[C@H](CC2CCCC2)CN(O)C=O)c1 [Example 14, N-[(3-cyanophenyl)carbonyl]-1-((2R)-3-cyclopentyl-2-{[formyl(hydroxy)amino]methyl}propanoyl)-L-prolinamide]	≤ 32
O=CN(O)C[C@@H](CC1CCCC1)C(=O)N1CCC[C@H]1C(=O)NC(=O)c1cc(F)ccc1F [Example 15, 1-((2R)-3-cyclopentyl-2-{[formyl(hydroxy)amino]methyl}propanoyl)-N-[(2,5-difluorophenyl)carbonyl]-L-prolinamide]	≤ 32
Cc1cc(C(=O)NC(=O)[C@@H]2CCCN2C(=O)[C@H](CC2CCCC2)CN(O)C=O)n(C)n1 [Example 8, 1-((2R)-3-cyclopentyl-2-{[formyl(hydroxy)amino]methyl}propanoyl)-N-[(1,3-dimethyl-1H-pyrazol-5-yl)carbonyl]-L-prolinamide]	≤ 32
O=CN(O)C[C@@H](CC1CCCC1)C(=O)N1CCC[C@H]1C(=O)NC(=O)c1ccc(N2CCOCC2)nc1 [Example 20, N-[1-((2R)-3-cyclopentyl-2-{[formyl(hydroxy)amino]methyl}propanoyl)-L-prolyl]-6-(4-morpholinyl)-3-pyridinecarboxamide]	≤ 32
O=CN(O)C[C@@H](CC1CCCC1)C(=O)N1CCC[C@H]1C(=O)NC(=O)c1c(F)cccc1F [Example 18, 1-((2R)-3-cyclopentyl-2-{[formyl(hydroxy)amino]methyl}propanoyl)-N-[(2,6-difluorophenyl)carbonyl]-L-prolinamide]	≤ 32
Cc1cc(C(=O)NC(=O)[C@@H]2CCCN2C(=O)[C@H](CC2CCCC2)CN(O)C=O)no1 [Example 9, 1-((2R)-3-cyclopentyl-2-{[formyl(hydroxy)amino]methyl}propanoyl)-N-[(5-methyl-3-isoxazolyl)carbonyl]-L-prolinamide]	≤ 32
O=CN(O)C[C@@H](CC1CCCC1)C(=O)N1CCC[C@H]1C(=O)NC(=O)c1ccc(F)cc1 [Example 1, 1-((2R)-3-cyclopentyl-2-{[formyl(hydroxy)amino]methyl}propanoyl)-N-[(4-fluorophenyl)carbonyl]-L-prolinamide]	≤ 32
O=CN(O)C[C@@H](CC1CCCC1)C(=O)N1CCC[C@H]1C(=O)NC(=O)c1ccccc1F [Example 10, 1-((2R)-3-cyclopentyl-2-{[formyl(hydroxy)amino]methyl}propanoyl)-N-[(2-fluorophenyl)carbonyl]-L-prolinamide]	≤ 32
Cc1ccc(C(=O)NC(=O)[C@@H]2CCCN2C(=O)[C@H](CC2CCCC2)CN(O)C=O)cc1F [Example 12]	≤ 32
O=CN(O)C[C@@H](CC1CCCC1)C(=O)N1CCC[C@H]1C(=O)NC(=O)c1cccc(F)c1 [Example 11, 1-((2R)-3-cyclopentyl-2-{[formyl(hydroxy)amino]methyl}propanoyl)-N-[(3-fluorophenyl)carbonyl]-L-prolinamide]	≤ 32
COCC(=O)NC(=O)[C@@H]1CCCN1C(=O)[C@H](CC1CCCC1)CN(O)C=O [Example 5, 1-((2R)-3-cyclopentyl-2-{[formyl(hydroxy)amino]methyl}propanoyl)-N-[(methyloxy)acetyl]-L-prolinamide]	≤ 32
Cc1cc(C(=O)NC(=O)[C@@H]2CCCN2C(=O)[C@H](CC2CCCC2)CN(O)C=O)nn1C [Example 7, 1-((2R)-3-cyclopentyl-2-{[formyl(hydroxy)amino]methyl}propanoyl)-N-[(1,5-dimethyl-1H-pyrazol-3-yl)carbonyl]-L-prolinamide]	≤ 32
O=CN(O)C[C@@H](CC1CCCC1)C(=O)N1CCC[C@H]1C(=O)NC(=O)c1ccc(C(F)(F)F)nc1 [Example 6, N-[1-((2R)-3-cyclopentyl-2-{[formyl(hydroxy)amino]methyl}propanoyl)-L-prolyl]-6-(trifluoromethyl)-3-pyridinecarboxamide]	≤ 32
O=CN(O)C[C@@H](CC1CCCC1)C(=O)N1CCC[C@H]1C(=O)NC(=O)c1ccncc1 [Example 17, N-[1-((2R)-3-cyclopentyl-2-{[formyl(hydroxy)amino]methyl}propanoyl)-L-prolyl]-4-pyridinecarboxamide]	≤ 32
O=CN(O)C[C@@H](CC1CCCC1)C(=O)N1CCC[C@H]1C(=O)NC(=O)c1ccccc1 [Example 3, 1-((2R)-3-cyclopentyl-2-{[formyl(hydroxy)amino]methyl}propanoyl)-N-(phenylcarbonyl)-L-prolinamide]	≤ 32
